Experimental data from patent US20160271263A1 (Novo Nordisk A/S, priority 2010, published 2016).
Numbered stars: 1 amine (or outer) side, 2 acyl side, 3 side chain; on linkers, the order of the positions; unused ones are H or OH. Square brackets hold non-standard residues; d marks the D form. Side chains are listed from the residue outwards. Peptide text beside a SMILES is read from it. * marks the point of attachment. C18 diacid = O=C(O)CCCCCCCCCCCCCCCCC(=O)*; γGlu = O=C(O)[C@H](CCC(=O)[*:2])N[*:1]; AEEA = NCCOCCOCC(=O)O; Aib = CC(C)(N)C(=O)O

What follows are molecules tested against glucagon receptor (Homo sapiens, UniProt P47871) (assay: cell-based).
Chain of glucagon receptor (P47871 26-477): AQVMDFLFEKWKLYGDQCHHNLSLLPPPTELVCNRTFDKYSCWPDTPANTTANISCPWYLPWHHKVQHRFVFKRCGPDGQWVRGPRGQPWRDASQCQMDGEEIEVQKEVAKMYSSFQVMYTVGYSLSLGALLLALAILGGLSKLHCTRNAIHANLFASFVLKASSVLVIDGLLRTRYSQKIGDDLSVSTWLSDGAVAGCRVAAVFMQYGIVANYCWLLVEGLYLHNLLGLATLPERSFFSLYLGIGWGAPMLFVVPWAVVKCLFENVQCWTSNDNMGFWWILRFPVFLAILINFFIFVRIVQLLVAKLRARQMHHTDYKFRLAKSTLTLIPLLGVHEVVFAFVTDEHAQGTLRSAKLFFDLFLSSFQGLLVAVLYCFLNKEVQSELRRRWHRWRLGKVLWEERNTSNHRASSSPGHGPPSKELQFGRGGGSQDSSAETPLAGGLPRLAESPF
Method: The cells (14000 per well) were incubated (37° C., 5% CO2) overnight in 384-well plates. Next day the cells were loaded with a calcium responsive dye that only distributed into the cytoplasm. Probenecid, an inhibitor of the organic anion transporter, was added to prevent the dye from leaving the cell. A PDE inhibitor was added to prevent formatted cAMP from being degraded. […] End point data were collected after 6 minutes. An increase in intracellular cAMP was proportional to an increased in calcium concentrations in the cytoplasm. […] EC50-values were calculated in Prism5.

SMILES	EC50 [nM]
CC(C)C[C@H](NC(=O)[C@H](Cc1ccc(O)cc1)NC(=O)[C@H](CCCCN)NC(=O)[C@H](CO)NC(=O)[C@H](Cc1ccc(O)cc1)NC(=O)[C@H](CC(=O)O)NC(=O)[C@H](CO)NC(=O)[C@@H](NC(=O)[C@H](Cc1ccccc1)NC(=O)[C@@H](NC(=O)CNC(=O)[C@H](CCC(N)=O)NC(=O)[C@H](CO)NC(=O)[C@@H](N)Cc1c[nH]cn1)[C@@H](C)O)[C@@H](C)O)C(=O)N[C@@H](CC(=O)O)C(=O)N[C@@H](CO)C(=O)N[C@@H](CCCNC(=N)N)C(=O)N[C@@H](CCCNC(=N)N)C(=O)N[C@@H](C)C(=O)N[C@@H](CCC(N)=O)C(=O)N[C@@H](CC(=O)O)C(=O)N[C@@H](Cc1ccccc1)C(=O)N[C@H](C(=O)N[C@@H](CCCCNC(=O)COCCOCCNC(=O)COCCOCCNC(=O)CC[C@H](NC(=O)CCCCCCCCCCCCCCCCC(=O)O)C(=O)O)C(=O)N[C@@H](Cc1ccc(OP(=O)(O)O)cc1)C(=O)N[C@@H](CC(C)C)C(=O)N[C@@H](CC(C)C)C(=O)N[C@@H](CC(N)=O)C(=O)N[C@H](C(=O)O)[C@@H](C)O)C(C)C [Example 56, N^ε24-([2-[2-[2-[[2-[2-[2-[[(4S)-5-hydroxy-4-[(18-hydroxy-18-oxooctadecanoyl)amino]-5-oxopentanoyl]amino]ethoxy]ethoxy]acetyl]amino]ethoxy]ethoxy]acetyl]) [Lys^24, (p)Tyr^25,Leu^27] Glucagon]	0.171
CSCC[C@H](NC(=O)[C@H](CC(C)C)NC(=O)[C@H](Cc1c[nH]c2ccccc12)NC(=O)[C@H](CCC(N)=O)NC(=O)[C@@H](NC(=O)[C@H](Cc1ccccc1)NC(=O)[C@H](CC(=O)O)NC(=O)[C@H](CCCNC(=N)N)NC(=O)[C@H](C)NC(=O)[C@H](CCCNC(=N)N)NC(=O)[C@H](CCC(N)=O)NC(=O)[C@H](CCC(=O)O)NC(=O)[C@H](CC(=O)O)NC(=O)[C@H](CC(C)C)NC(=O)[C@H](Cc1ccc(O)cc1)NC(=O)[C@H](CCCCN)NC(=O)[C@H](CO)NC(=O)[C@H](Cc1ccc(O)cc1)NC(=O)[C@H](CC(=O)O)NC(=O)[C@H](CO)NC(=O)[C@@H](NC(=O)[C@H](Cc1ccccc1)NC(=O)[C@@H](NC(=O)CNC(=O)[C@H](CCC(N)=O)NC(=O)[C@H](CO)NC(=O)[C@@H](N)Cc1c[nH]cn1)[C@@H](C)O)[C@@H](C)O)C(C)C)C(=O)N[C@@H](CC(N)=O)C(=O)N[C@H](C(=O)N[C@@H](CCCCNC(=O)COCCOCCNC(=O)COCCOCCNC(=O)CC[C@H](NC(=O)CCCCCCCCCCCCCCCCC(=O)O)C(=O)O)C(N)=O)[C@@H](C)O [Example 26, N^α ([Glu^16,Gln^17,Arg^20] Glucagonyl) N^ε-([2-[2-[2-[[2-[2-[2-[[(4S)-5-hydroxy-4-[(18-hydroxy-18-oxooctadecanoyl)amino]-5-oxopentanoyl]amino]ethoxy]ethoxy]acetyl]amino]ethoxy]ethoxy]acetyl]) Lysinyl amide] (H-HSQGTFTSDYSKYLDEQRARDFVQWLMNTK([AEEA-AEEA-γGlu-C18 diacid])-NH2; N-terminus assumed)	0.192
CC(C)C[C@H](NC(=O)[C@H](Cc1ccc(O)cc1)NC(=O)[C@H](CCCCN)NC(=O)[C@H](CO)NC(=O)[C@H](Cc1ccc(O)cc1)NC(=O)[C@H](CC(=O)O)NC(=O)[C@H](CO)NC(=O)[C@@H](NC(=O)[C@H](Cc1ccccc1)NC(=O)[C@@H](NC(=O)CNC(=O)[C@H](CCC(N)=O)NC(=O)[C@H](CO)NC(=O)[C@@H](N)Cc1c[nH]cn1)[C@@H](C)O)[C@@H](C)O)C(=O)N[C@@H](CC(=O)O)C(=O)N[C@@H](CO)C(=O)N[C@@H](CCCNC(=N)N)C(=O)N[C@@H](CCCNC(=N)N)C(=O)N[C@@H](C)C(=O)N[C@@H](CCC(=O)O)C(=O)N[C@@H](CC(=O)O)C(=O)N[C@@H](Cc1ccccc1)C(=O)N[C@H](C(=O)N[C@@H](CCCCNC(=O)CC[C@H](NC(=O)CC[C@H](NC(=O)COCCOCCNC(=O)COCCOCCNC(=O)CC[C@H](NC(=O)CCCCCCCCCCCCCCCCC(=O)O)C(=O)O)C(=O)O)C(=O)O)C(=O)N[C@@H](Cc1c[nH]c2ccccc12)C(=O)N[C@@H](CC(C)C)C(=O)N[C@@H](CC(C)C)C(=O)N[C@@H](CO)C(=O)N[C@H](C(=O)O)[C@@H](C)O)C(C)C [Example 101, N^ε24-[(4S)-4-carboxy-4-[[(4S)-4-carboxy-4-[[2-[2-[2-[[2-[2-[2-[[(4S)-4-carboxy-4-(17-carboxyheptadecanoylamino)butanoyl]amino]ethoxy]ethoxy]acetyl]amino]ethoxy]ethoxy]acetyl]amino]butanoyl]amino]butanoyl]-[Glu^20,Lys^24,Leu^27,Ser^28]-Glucagon]	0.307

Results, then the molecule that gave them:

EC50 [nM]	SMILES
0.094	CC(C)C[C@H](NC(=O)[C@H](Cc1ccc(O)cc1)NC(=O)[C@H](CCCCN)NC(=O)[C@H](CO)NC(=O)[C@H](Cc1ccc(O)cc1)NC(=O)[C@H](CC(=O)O)NC(=O)[C@H](CO)NC(=O)[C@@H](NC(=O)[C@H](Cc1ccccc1)NC(=O)[C@@H](NC(=O)CNC(=O)[C@H](CCC(N)=O)NC(=O)[C@H](CO)NC(=O)[C@@H](N)Cc1c[nH]cn1)[C@@H](C)O)[C@@H](C)O)C(=O)N[C@@H](CC(=O)O)C(=O)N[C@@H](CO)C(=O)N[C@@H](CCCCNC(=O)COCCOCCNC(=O)COCCOCCNC(=O)CC[C@H](NC(=O)CCCCCCCCCCCCCCCCC(=O)O)C(=O)O)C(=O)N[C@@H](CCCNC(=N)N)C(=O)N[C@@H](C)C(=O)N[C@@H](CCC(N)=O)C(=O)N[C@@H](CC(=O)O)C(=O)N[C@@H](Cc1ccccc1)C(=O)N[C@H](C(=O)N[C@@H](CCC(N)=O)C(=O)N[C@@H](Cc1c[nH]c2ccccc12)C(=O)N[C@@H](CC(C)C)C(=O)N[C@@H](CC(C)C)C(=O)N[C@@H](CC(N)=O)C(=O)N[C@H](C(=O)O)[C@@H](C)O)C(C)C [Example 19]
0.135	CC(C)C[C@H](NC(=O)[C@H](Cc1ccc(O)cc1)NC(=O)[C@H](CCCCN)NC(=O)[C@H](CO)NC(=O)[C@H](Cc1ccc(O)cc1)NC(=O)[C@H](CC(=O)O)NC(=O)[C@H](CO)NC(=O)[C@@H](NC(=O)[C@H](Cc1ccccc1)NC(=O)[C@@H](NC(=O)CNC(=O)[C@H](CCC(N)=O)NC(=O)C(C)(C)NC(=O)[C@@H](N)Cc1c[nH]cn1)[C@@H](C)O)[C@@H](C)O)C(=O)N[C@@H](CC(=O)O)C(=O)N[C@@H](CCC(=O)O)C(=O)N[C@@H](CCCNC(=N)N)C(=O)N[C@@H](CCCNC(=N)N)C(=O)N[C@@H](C)C(=O)N[C@@H](CCC(N)=O)C(=O)N[C@@H](CC(=O)O)C(=O)N[C@@H](Cc1ccccc1)C(=O)N[C@H](C(=O)N[C@@H](CCCCNC(=O)COCCOCCNC(=O)COCCOCCNC(=O)CC[C@H](NC(=O)CCCCCCCCCCCCCCCCC(=O)O)C(=O)O)C(=O)N[C@@H](Cc1c[nH]c2ccccc12)C(=O)N[C@@H](CC(C)C)C(=O)N[C@@H](CC(C)C)C(=O)N[C@@H](CC(N)=O)C(=O)N[C@H](C(N)=O)[C@@H](C)O)C(C)C [Example 29, N^ε24-([2-[2-[2-[[2-[2-[2-[[(4S)-5-hydroxy-4-[(18-hydroxy-18-oxooctadecanoyl)amino]-5-oxopentanoyl]amino]ethoxy]ethoxy]acetyl]amino]ethoxy]ethoxy]acetyl]) [Aib^2,Glu^16,Lys^24,Leu^27]Glucagon peptide amide] (H-H[Aib]QGTFTSDYSKYLDERRAQDFVK([AEEA-AEEA-γGlu-C18 diacid])WLLNT-NH2; N-terminus assumed)
